pIC50: −log10 of the molar value.

The term melting point denotes the temperature, or range, at which the solid turns liquid.

The target of data set [1] is T1, enzyme FAAH (Fatty Acid Amide Hydrolase) (Mus musculus, UniProt O08914).
T1 construct: The membrane homogenates are prepared extemporaneously by homogenizing the tissues; from tissue; host or cells: mouse brain (minus the cerebellum), membrane homogenate
T1 sequence (O08914 1-579): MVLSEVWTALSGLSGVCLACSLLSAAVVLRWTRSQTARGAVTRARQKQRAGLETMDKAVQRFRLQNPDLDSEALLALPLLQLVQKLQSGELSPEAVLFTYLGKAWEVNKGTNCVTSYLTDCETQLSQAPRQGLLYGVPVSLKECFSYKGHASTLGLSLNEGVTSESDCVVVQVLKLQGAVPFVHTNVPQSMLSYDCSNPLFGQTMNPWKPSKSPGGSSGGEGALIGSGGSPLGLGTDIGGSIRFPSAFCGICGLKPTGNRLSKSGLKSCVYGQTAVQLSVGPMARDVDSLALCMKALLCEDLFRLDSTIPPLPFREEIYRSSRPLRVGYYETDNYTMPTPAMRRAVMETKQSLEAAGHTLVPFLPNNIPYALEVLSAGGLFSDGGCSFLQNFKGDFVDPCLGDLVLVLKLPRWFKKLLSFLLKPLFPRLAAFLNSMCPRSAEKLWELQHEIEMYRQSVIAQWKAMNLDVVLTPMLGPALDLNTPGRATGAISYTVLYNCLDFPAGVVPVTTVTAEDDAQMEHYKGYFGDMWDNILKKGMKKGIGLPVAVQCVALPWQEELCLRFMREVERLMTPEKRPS
As to the kind of experiment: radioenzymatic test: hydrolysis of anandamide [ethanolamine 1-3H] with FAAH, mouse brain membrane homogenates. In kind it is biochemical. Particulars: mouse brain membrane homogenate; preincubation 20 minutes at 25° C.; anandamide 10 μM; read-out: IC50 (concentration that inhibits 50% of the control enzymatic activity of FAAH). On the procedure: The compounds of the invention underwent pharmacological tests to determine their inhibitory effect on the enzyme FAAH (Fatty Acid Amide Hydrolase).
Thus, mouse brains (minus the cerebellum) are removed and stored at −80° C. The membrane homogenates are prepared extemporaneously by homogenizing the tissues using a Precellys® machine in reaction buffer (10 mM Tris-HCl, pH=8, 150 mM NaCl and 1 mM ethylenediaminetetraacetic acid (EDTA)). The enzymatic reaction is performed in 96-well Multiscreen filtration plates in a final volume of 70 μL. Reaction buffer supplemented with fatty acid-free bovine serum albumin (BSA, 1 mg/ml) is used for the enzymatic reaction and the dilution of the compounds and of the anandamide [ethanolamine 1-^3H]. The reaction buffer containing BSA (43 μL/well), the diluted test compounds at different concentrations (7 μL/well containing 1% DMSO) and the membrane preparation (10 μL/well, i.e. 200 μg of tissue per test) are successively added to the wells. After preincubation for 20 minutes of the compounds with the enzyme at 25° C., the reaction is started by adding anandamide [ethanolamine 1-^3H]. (Specific activity of 15-20 Ci/mmol) diluted with cold anandamide (10 μL/well, final concentration of 10 μM, 0.01 μCi per test). After incubation for 20 minutes at 25° C., the enzymatic reaction is stopped by adding a […] of active charcoal prepared in 1.5M NaCl buffer and 0.5 M HCl (50 μL/well). The mixture is stirred for 10 minutes and the aqueous phase containing the ethanolamine [1-^3H] is then recovered by filtration under vacuum and counted by liquid scintillation.

A further data set has as its system male OF1 mice. Briefly: test of analgesia: abdominal stretching induced with PBQ (phenylbenzoquinone). In kind it is in vivo, mouse. The following applies: 30 mg/kg p.o. at 120 minutes. On the procedure: The in vivo activity of the compounds of the invention was evaluated in a test of analgesia.
Thus, the intraperitoneal (i.p.) administration of PBQ (phenylbenzoquinone, 2 mg/kg in 0.9% sodium chloride solution containing 5% ethanol) to male OF1 mice weighing 25 to 30 g causes abdominal stretching, on average 30 torsions or contractions within a period of 5 to 15 minutes after injection. The test compounds are administered orally (p.o.) or intraperitoneally (i.p.) suspended in Tween 80 at 0.5%, 60 minutes or 120 minutes before the administration of PBQ. Under these conditions, the compounds of the invention that are the most powerful reduce by 35% to 80% the number of stretches induced with PBQ, over a dose range of between 1 and 30 mg/kg.
For example, compound 5 of Table 1 reduces by 50% the number of stretches induced with PBQ, at a dose of 30 mg/kg p.o. at 120 minutes.

In the case of `NC(=O)c1cc(COC(=O)NC2CC3(CCN(c4ccc(-c5ccc(F)cc5)cn4)C3)C2)on1` (mixture of isomers) [Compound 10, 3-Carbamoylisoxazol-5-ylmethyl{6-[5-(4-fluorophenyl)pyridin-2-yl]-6-azaspiro[3.4]oct-2-yl}carbamate], the pIC50 in data set [1] was 8.64.
Take `CNC(=O)c1cc(COC(=O)NCC2CC3(CCN(c4ccc(-c5ccc(F)cc5)cn4)C3)C2)on1` (single isomer, unassigned) [Compound 12, 3-(Methylcarbamoyl)isoxazol-5-ylmethyl 6-[5-(4-fluorophenyl)pyridin-2-yl]-6-azaspiro[3.4]oct-2-ylmethylcarbamate]: the melting point fell in the range of 171 to 173 °C. Moreover, in data set [1], the pIC50 was 9.07.
`CNC(=O)c1cc(COC(=O)NCC2CC3(CCN(c4ccc(-c5ccc(F)cc5)cn4)C3)C2)on1` (single isomer, unassigned) [Compound 13, 3-(Methylcarbamoyl)isoxazol-5-ylmethyl 6-[5-(4-fluorophenyl)pyridin-2-yl]-6-azaspiro[3.4]oct-2-ylmethylcarbamate] returned a melting point of 180 to 182 °C.
Same read-out and setting: the same measure for `CNC(=O)c1cc(COC(=O)NC2CC3(CCN(c4ccc(-c5ccc(F)cc5)cn4)C3)C2)on1` (single isomer, unassigned) [Compound 17, 3-(Methylcarbamoyl)isoxazol-5-ylmethyl{6-[5-(4-fluorophenyl)pyridin-2-yl]-6-azaspiro[3.4]oct-2-yl}carbamate]: 203 to 205 °C.
The same measure, in the same setting: the same measure for `CNC(=O)c1cc(COC(=O)NC2CC3(CCN(c4ccc(-c5ccc(F)cc5)cn4)C3)C2)on1` (single isomer, unassigned) [Compound 18, 3-(Methylcarbamoyl)isoxazol-5-ylmethyl{6-[5-(4-fluorophenyl)pyridin-2-yl]-6-azaspiro[3.4]oct-2-yl}carbamate]: 194 to 196 °C.
`NC(=O)c1cc(COC(=O)NC2CC3(CCN(c4ccc(Br)cn4)CC3)C2)on1` [Compound 4, 3-carbamoylisoxazol-5-ylmethyl[7-(5-bromopyridin-2-yl)-7-azaspiro[3.5]non-2-yl]carbamate]: the pIC50 in data set [1] is 8.09.
As for `NC(=O)c1cc(COC(=O)NC2CC3(CCN(c4ccc(-c5ccc(F)cc5)cn4)CC3)C2)on1` [Compound 5, 3-Carbamoylisoxazol-5-ylmethyl{7-[5-(4-fluorophenyl)pyridin-2-yl]-7-azaspiro[3.5]non-2-yl}carbamate], the melting point lay within 216 to 218 °C. Also, in the data set with male OF1 mice, the “reduction of the number of stretches induced with PBQ” value amounted to 50%.
On to `NC(=O)c1cc(COC(=O)NCC2CC3(CCN(c4ccc5cc(F)ccc5n4)CC3)C2)on1` [Compound 6, 3-Carbamoylisoxazol-5-ylmethyl[7-(6-fluoroquinolin-2-yl)-7-azaspiro[3.5]non-2-yl]methylcarbamate], for which the melting point fell in the range of 190 to 192 °C. Besides, in data set [1], the pIC50 is 9.60.
`CNC(=O)c1cc(COC(=O)NC2CC3(CCN(c4ccc(-c5ccc(F)cc5)cn4)CC3)C2)on1` [Compound 8, 3-(Methylcarbamoyl)isoxazol-5-ylmethyl 7-[5-(4-fluorophenyl)pyridin-2-yl]-7-azaspiro[3.5]non-2-ylcarbamate] came in with a melting point of 219 to 221 °C. For the same molecule, the pIC50 in data set [1] is 9.14.
Turning to `CNC(=O)c1cc(COC(=O)NC2CC3(CCN(c4ccc5cc(Cl)ccc5n4)CC3)C2)on1` [Compound 19, 3-(Methylcarbamoyl)isoxazol-5-ylmethyl[7-(6-chloroquinolin-2-yl)-7-azaspiro[3.5]non-2-yl]carbamate], in data set [1], the pIC50 is 8.74.
Still for that read-out and setting: the same measure for `NC(=O)c1cc(COC(=O)NC2CC3(CCN(c4cncc(-c5ccc(F)cc5)n4)CC3)C2)on1` [Compound 25, 3-carbamoylisoxazol-5-ylmethyl{7-[6-(4-fluorophenyl)pyrazin-2-yl]-7-azaspiro[3.5]non-2-yl}carbamate]: 8.77.
As to `CC(C)Cc1ccc(N2CCC3(CC2)CC(NC(=O)OCc2cc(C(N)=O)no2)C3)nc1` [Compound 31, 3-Carbamoylisoxazol-5-ylmethyl[7-(5-isobutylpyridin-2-yl)-7-azaspiro[3,5]non-2-yl]carbamate], the melting point was in the range of 178 to 180 °C. Besides, the pIC50 in data set [1] is 8.37.
For `NC(=O)c1cc(COC(=O)NC2CC23CCN(c2nccc(C(F)(F)F)n2)CC3)on1` (stereo not drawn) [Compound 40, 3-Carbamoylisoxazol-5-ylmethyl[6-(4-trifluoromethylpyrimidin-2-yl)-6-azaspiro[2.5]oct-1-yl]carbamate], the pIC50 in data set [1] was 9.30.

The values are drawn from patent US8889702B2, “Derivatives of azaspiranyl-alkylcarbamates of 5-member heterocyclic compounds, preparation thereof and therapeutic use thereof” (Sanofi, priority 2009, dated 2014).
